Literature values in patent publication US9849088B2, “Depot formulations of a hydrophobic active ingredient and methods for preparation thereof” (PAINREFORM LTD., priority 2012, dated 2017).

Details: comparison value

For CCCN1CCCC[C@H]1C(=O)Nc1c(C)cccc1C [ropivacaine], the Toxic threshold (plasma) is listed as 0.6 µg/mL.
